We go through 2 compounds from US20250262146A1, “PLATFORM NANOPARTICLE TECHNOLOGY FOR SUSTAINED DELIVERY OF HYDROPHOBIC DRUGS” (UNIVERSITY OF MARYLAND, BALTIMORE, priority 2022, published 2025).

pIC50: −log10 of the molar value.

The nature of data set [1]: Water solubility of ART631, alone and loaded into nanogels. The settings on record: drug without nanogel. In kind it is physicochemical.
Data set [2] relates to MOLM14 human acute myeloid cells. Kind of data set: MTT cytotoxicity assay, MOLM14. It is filed as cell-based. To be noted: concentration 0.0025 mg/mL. The procedure: The MOLM14 AML cell line, MV4;11, and THP1 cell lines were cultured and incubated in RPMI 1640 medium with 10% FBS at 37° C. and air containing 5% CO2. When the cells reached about 70% confluency, the cells were split with a density of 40,000 cells per cm^2. Adult Retinal Pigment Epithelial (ARPE-19) cells were grown in Dulbecco's Modified Eagle Medium (DMEM)/F12 (1:1) with 10% FBS and 1% Penicillin-Streptomycin (Pen-Strep). Dental Pulp Stem Cells (DPSCs) were grown in DMEM with glutamine and 10% FBS and 1% Pen-Strep. A Hemolysis assay kit was purchased from Creative Biolabs™.
The cytotoxicity of plain nanogels, plain SDS nanogels and 2, 5, 10 and 15 wt % ART631-loaded NanoART631 were assessed using thiazolyl blue tetrazolium bromide (MTT) and WST1 assays against MOLM14 human acute myeloid cells, MV4;11 cells, THP1 cells, normal adult retinal pigment epithelium-19 (ARPE-19) cells, and dental pulp stem cells (DPSCs). […] Pure ART631, ART838, 5 and 10 wt % NanoART631 IC50 were determined by adding 5e^−6, 5e^−5, 5e^−4, 6.25e^−4, 0.001, 0.0025, 0.005, 0.01, 0.05, 0.1, 0.2, 0.5, 1, 5, 10 mg·mL-1 of the formulation to MOLM14 AML cells. […] Absorbance was read at 570 nm using a BioTek™ cytation 5 microplate reader for all experiments after removing all the wells contents and then dissolving the formazan crystals in 150 μL of DMSO. […]
For orientation: Formazan colour is commonly taken as a measure of viable cells.

Data set [3] concerns 9 human leukemia cell lines. To be noted: 9 human leukemia cell lines in vitro; cited from earlier work.

As to `C=CCO/N=C(/C[C@H]1O[C@@H]2O[C@@]3(C)CC[C@H]4[C@H](C)CC[C@@H]([C@H]1C)[C@@]24OO3)[C@H]1O[C@@H]2O[C@@]3(C)CC[C@H]4[C@H](C)CC[C@@H]([C@H]1C)[C@@]24OO3` [ART631], in data set [1], the solubility (usually the concentration that dissolves in the medium under given conditions) is < 10 µg/mL. The MOLM14 cells killed in data set [2] is on record as 67%. Moreover, the pIC50 – broadly, the IC50 on a negative log10 scale, so that one unit is a factor of ten – in data set [3] is > 7.35.
On to `C[C@@H]1CCC2[C@@H](C)[C@@H](CC(COP(=O)(Oc3ccccc3)Oc3ccccc3)C[C@H]3O[C@@H]4O[C@@]5(C)CCC6[C@H](C)CCC([C@H]3C)[C@]64OO5)O[C@@H]3O[C@@]4(C)CCC1[C@@]23OO4` (stereo partly shown) [ART838], for which the MOLM14 cells killed in data set [2] came to 64%.
